The assay has as its system HCV. Briefly: Assay of anti-HCV activity in HCV-infected Huh7.5 cells (intracellular HCV RNA by one-step quantitative RT-PCR). It counts as cell-based. To be noted: Hepatitis C virus, read-out: inhibitory activities (inhibitory levels of the compounds against HCV replication). The procedure: 100 μL Huh7.5 cells were seeded at a density of 1×10^5/mL in a 96-well cell culture plate and incubated in an incubator at 37° C., 5% CO2 and saturated humidity for 6 hrs. Then, while infecting Huh7.5 cells with viral solution containing HCV virus particles, the compounds of the present invention (including all specific compounds listed herein) were added at a concentration of 1 μM, respectively. After continuing incubation for 96 hrs, the total intracellular RNA was extracted separately, and the content of intracellular HCV RNA was measured by one-step quantitative RT-PCR, compared with the RNA level of the viral control, and the inhibition rate of the compounds against HCV was calculated.

[1] abbreviates: compound at 1 μM, Huh7.5 cells infected with HCV, 96 hrs, intracellular HCV RNA vs viral control.

Read-outs that look alike come from different tables or passages of the source.

Experimental findings from patent publication US11939307B2, “Phenylmethyl-piperazine derivatives and antiviral uses thereof” (INSTITUTE OF MEDICINAL BIOTECHNOLOGY, CHINESE ACADEMY OF …, priority 2019, dated 2024) are described below.

In the case of `CN(C)CCN(C)c1ccc(C(F)(F)F)c(CN2CCN(C(c3ccccc3)c3ccc(Cl)cc3)CC2)c1` (stereo not shown) [Compound 54, N^1-(3-((4-((4-chlorophenyl)(phenyl)methyl)piperazin-1-yl)methyl)-4-(trifluoromethyl)phenyl)-N^1,N^2,N^2-trimethylethan-1,2-diamine], the inhibition at 1 µM under setting [1] was over 75%.
For the molecule `CN1CCN(c2ccc(C(F)(F)F)c(CN3CCN(C(c4ccc(Cl)cc4)c4ccc(Cl)cc4)CC3)c2)CC1` [Compound 55, 1-(bis(4-chlorophenyl)methyl)-4-(5-(4-methylpiperazin-1-yl)-2-(trifluoromethyl)benzyl)piperazine], under setting [1], the inhibition at 1 µM is over 75%.
`CN1CCCN(c2ccc(C(F)(F)F)c(CN3CCN(C(c4ccc(Cl)cc4)c4ccccn4)CC3)c2)CC1` (stereo not shown) [Compound 56, 1-(3-((4-((4-chlorophenyl)(pyridin-2-yl)methyl)piperazin-1-yl)methyl)-4-(trifluoromethyl)phenyl)-4-methyl-1,4-diazepane]: under setting [1], the inhibition at 1 µM was in the range of 50 to 75%.
For the molecule `CN1CCCN(c2ccc(C(F)(F)F)c(CN3CCN(C(c4ccccc4)c4ccccn4)CC3)c2)CC1` (stereo not shown) [Compound 57, 1-methyl-4-(3-((4-(phenyl(pyridin-2-yl)methyl)piperazin-1-yl)methyl)-4-(trifluoromethyl)phenyl)-1,4-diazepane], the inhibition at 1 µM under setting [1] was in the range of 50 to 75%.
For the molecule `COc1ccc(C(c2ccc(OC)cc2)N2CCN(Cc3cc(N(C)CCN(C)C)ccc3C(F)(F)F)CC2)cc1` [Compound 58, N^1-(3-((4-(bis(4-methoxyphenyl)methyl)piperazin-1-yl)methyl)-4-(trifluoromethyl)phenyl)-N^1,N^2,N^2-trimethylethan-1,2-diamine], under setting [1], the inhibition at 1 µM was over 75%.
Take `CCCN(CCN(C)C)c1ccc(C(F)(F)F)c(CN2CCN(C(c3ccc(Cl)cc3)c3ccc(Cl)cc3)CC2)c1` [Compound 59, N^1-(3-((4-(bis(4-chlorophenyl)methyl)piperazin-1-yl)methyl)-4-(trifluoromethyl)phenyl)-N^2,N^2-dimethyl-N^1-propylethan-1,2-diamine]: the inhibition at 1 µM under setting [1] is over 75%.
`CC1CN(C(c2ccc(F)cc2)c2ccc(F)cc2)CCN1Cc1cc(N2CCCN(C)CC2)ccc1C(F)(F)F` (stereo not shown) [Compound 60, 1-(3-((4-(bis(4-fluorophenyl)methyl)-2-methylpiperazin-1-yl)methyl)-4-(trifluoromethyl)phenyl)-4-methyl-1,4-diazepane]: the inhibition at 1 µM under setting [1] is over 75%.
For the molecule `CC1CN(C(c2ccc(Cl)cc2)c2ccc(Cl)cc2)CCN1Cc1cc(N2CCCN(C)CC2)ccc1C(F)(F)F` (stereo not shown) [Compound 61, 1-(3-((4-(bis(4-chlorophenyl)methyl)-2-methylpiperazin-1-yl)methyl)-4-(trifluoromethyl)phenyl)-4-methyl-1,4-diazepane], the inhibition at 1 µM under setting [1] is over 75%.
`CN(CC1CCCN1C)c1ccc(C(F)(F)F)c(CN2CCN(C(c3ccc(Cl)cc3)c3ccc(Cl)cc3)CC2)c1` (stereo not shown) [Compound 62, 3-((4-(bis(4-chlorophenyl)methyl)piperazin-1-yl)methyl)-N-methyl-N-((1-methylpyrrolidin-2-yl)methyl)-4-(trifluoromethyl)aniline]: under setting [1], the inhibition at 1 µM is over 75%.
As for `CN(CCN1CCCC1)c1ccc(C(F)(F)F)c(CN2CCN(C(c3ccc(Cl)cc3)c3ccc(Cl)cc3)CC2)c1` [Compound 63, 3-((4-(bis(4-chlorophenyl)methyl)piperazin-1-yl)methyl)-N-methyl-N-(2-(pyrrolidin-1-yl)ethyl)-4-(trifluoromethyl)aniline], the inhibition at 1 µM under setting [1] is over 75%.
On to `CN(CCN1CC1)c1ccc(C(F)(F)F)c(CN2CCN(C(c3ccc(Cl)cc3)c3ccc(Cl)cc3)CC2)c1` [Compound 64, N-(2-(aziridin-1-yl)ethyl)-3-((4-(bis(4-chlorophenyl)methyl)piperazin-1-yl)methyl)-N-methyl-4-(trifluoromethyl)aniline], for which the inhibition at 1 µM (Huh7.5, 96 h) is over 75%.
As for `CCN1CCCN(c2ccc(C(F)(F)F)c(CN3CCN(C(c4ccccn4)c4ccccn4)CC3)c2)CC1` [Compound 65, 1-(3-((4-(di(pyridin-2-yl)methyl)piperazin-1-yl)methyl)-4-(trifluoromethyl)phenyl)-4-ethyl-1,4-diazepane], the inhibition at 1 µM under setting [1] lay within 50 to 75%.
Same read-out and setting: next, `CN(C)CCN(C)c1ccc(C(F)(F)F)c(CN2CCN(C(c3ccc(F)cc3)c3ccc(F)cc3)CC2)c1` [Compound 66, N^1-(3-((4-(bis(4-fluorophenyl)methyl)piperazin-1-yl)methyl)-4-(trifluoromethyl)phenyl)-N^1,N^2,N^2-trimethylethan-1,2-diamine]: over 75%; `CN(C)C1CCCN(c2ccc(C(F)(F)F)c(CN3CCN(C(c4ccc(Cl)cc4)c4ccc(Cl)cc4)CC3)c2)C1` (stereo not shown) [Compound 67, 1-(3-((4-(bis(4-chlorophenyl)methyl)piperazin-1-yl)methyl)-4-(trifluoromethyl)phenyl)-N,N-dimethylpiperidin-3-amine]: over 75%; `CN1CCN(c2ccc(C(F)(F)F)c(CN3CCN(C(c4ccc(Br)cc4)c4ccc(Br)cc4)CC3)c2)CC1` [Compound 68, 1-(bis(4-bromophenyl)methyl)-4-(5-(4-methylpiperazin-1-yl)-2-(trifluoromethyl)benzyl)piperazine]: over 75%.
On to `CN(C)C1CCN(c2ccc(C(F)(F)F)c(CN3CCN(C(c4ccc(F)cc4)c4ccc(F)cc4)CC3)c2)CC1` [Compound 69, 1-(3-((4-(bis(4-fluorophenyl)methyl)piperazin-1-yl)methyl)-4-(trifluoromethyl)phenyl)-N,N-dimethylpiperidin-4-amine], for which the inhibition at 1 µM under setting [1] is over 75%.
With `CCCN(C)CCN(C)c1ccc(C(F)(F)F)c(CN2CCN(C(c3ccc(Cl)cc3)c3ccc(Cl)cc3)CC2)c1` [Compound 70, N^1-(3-((4-(bis(4-chlorophenyl)methyl)piperazin-1-yl)methyl)-4-(trifluoromethyl)phenyl)-N^1,N^2-dimethyl-N^2-propylethan-1,2-diamine], under setting [1], the inhibition at 1 µM was over 75%.
Same read-out and setting: under `CN(C)CCN(C)CCN(C)c1ccc(C(F)(F)F)c(CN2CCN(C(c3ccc(F)cc3)c3ccc(F)cc3)CC2)c1` [Compound 71, N^1-(3-((4-(bis(4-fluorophenyl)methyl)piperazin-1-yl)methyl)-4-(trifluoromethyl)phenyl)-N^2-(2-(dimethylamino)ethyl)-N^1,N^2-dimethylethan-1,2-diamine] stands over 75%; under `CN(C)CCN(C)c1ccc(C(F)(F)F)c(CN2CCC(C(c3ccc(Cl)cc3)c3ccc(Cl)cc3)CC2)c1` [Compound 72, N^1-(3-((4-(bis(4-chlorophenyl)methyl)piperidin-1-yl)methyl)-4-(trifluoromethyl)phenyl)-N^1,N^2,N^2-trimethylethan-1,2-diamine], over 75%.
Take `CN(C)CCN(C)c1ccc(C(F)(F)F)c(CN2CCC(C(c3ccc(Br)cc3)c3ccc(Br)cc3)CC2)c1` [Compound 73, N^1-(3-((4-(bis(4-bromophenyl)methyl)piperidin-1-yl)methyl)-4-(trifluoromethyl)phenyl)-N^1,N^2,N^2-trimethylethan-1,2-diamine]: the inhibition at 1 µM under setting [1] is over 75%.
`CN(C)CCN(C)c1ccc(C#N)c(CN2CCN(C(c3ccc(Cl)cc3)c3ccc(Cl)cc3)CC2)c1` [Compound 74, 2-((4-(bis(4-chlorophenyl)methyl)piperazin-1-yl)methyl)-4-((2-(dimethylamino)ethyl)(methyl)amino)benzonitrile]: the inhibition at 1 µM under setting [1] is over 75%.
The same measure, in the same setting: under `COc1ccc(C(c2ccc(OC)cc2)N2CCN(Cc3cc(N4CCCN(C)CC4)ccc3C#N)CC2)cc1` [Compound 75, 2-((4-(bis(4-methoxyphenyl)methyl)piperazin-1-yl)methyl)-4-(4-methyl-1,4-diazepan-1-yl)benzonitrile] stands over 75%; under `CN1CCCN(c2ccc(C#N)c(CN3CCN(C(c4ccc(F)cc4)c4ccc(F)cc4)CC3)c2)CC1` [Compound 76, 2-((4-(bis(4-fluorophenyl)methyl)piperazin-1-yl)methyl)-4-(4-methyl-1,4-diazepan-1-yl)benzonitrile], over 75%; under `CN1CCCN(c2ccc(C#N)c(CN3CCN(C(c4ccc(Cl)cc4)c4ccc(Cl)cc4)CC3)c2)CC1` [Compound 77, 2-((4-(bis(4-chlorophenyl)methyl)piperazin-1-yl)methyl)-4-(4-methyl-1,4-diazepan-1-yl)benzonitrile], over 75%.
The same measure, in the same setting: next, `CN(CCn1ccnc1)c1ccc(C#N)c(CN2CCN(C(c3ccc(Cl)cc3)c3ccc(Cl)cc3)CC2)c1` [Compound 78, 4-((2-(1H-imidazol-1-yl)ethyl)(methyl)amino)-2-((4-(bis(4-chlorophenyl)methyl)piperazin-1-yl)methyl)benzonitrile]: over 75%; `CN(C)CCN(C)c1ccc(C#N)c(CN2CCN(C(c3ccncc3)c3ccncc3)CC2)c1` [Compound 79, 2-((4-(di(pyridin-4-yl)methyl)piperazin-1-yl)methyl)-4-((2-(dimethylamino)ethyl)(methyl)amino)benzonitrile]: 50 to 75%; `CN1CCN(c2ccc(C#N)c(CN3CCN(C(c4ccc(Cl)cc4)c4ccc(Cl)cc4)CC3)c2)CC1` [Compound 80, 2-((4-(bis(4-chlorophenyl)methyl)piperazin-1-yl)methyl)-4-(4-methylpiperazin-1-yl)benzonitrile]: over 75%.
Turning to `CC(C)c1ccc(C(c2ccc(C(C)C)cc2)N2CCN(Cc3cc(N(C)CCN(C)C)ccc3C#N)CC2)cc1` [Compound 81, 2-((4-(bis(4-isopropylphenyl)methyl)piperazin-1-yl)methyl)-4-((2-(dimethylamino)ethyl)(methyl)amino)benzonitrile], the inhibition at 1 µM under setting [1] was over 75%.
